Assay in all cases: NCI anticancer screen, dose series, 48 h
For experiment [1], the system named is HCT-116 colon.
Experiment [2] has as its system HOP-62 NSCLC.
Experiment [3] concerns ACHN renal.
For experiment [4], the system named is RXF 393 renal.
Experiment [5] concerns 786-0 renal.
Experiment [6] relates to SF-539 CNS.
Experiment [7] concerns IGROV1 ovarian.
Experiment [8] has as its system M14 melanoma.
The test system of experiment [9] is HT29 colon.
In experiment [10] the test system is SW-620 colon.

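Step 1: Grow cells in 96-well plates. Step 2: Expose to compound for 48 hours at 5 concentrations. Step 3: Interpolate endpoints linearly; if unreached, use highest concentration. GI50 is the concentration that inhibits growth by half. The concentration for full growth arrest is given as TGI.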

In the case of `Fc1ccc(Nc2nc(NCCNc3ccnc4cc(Cl)ccc34)nc(N3CCOCC3)n2)cc1`, the GI50 in experiment [1] is 4.82 µM; in experiment [2], 13.4 µM; in [3], 7.06 µM; in experiment [4], 1.89 µM; in [5] it was 3.35 µM; in [6] it was 3.79 µM. Further, the GI50 in [7] is 6.3 µM; in experiment [8], 1.94 µM; in experiment [9], 2.27 µM; in experiment [10] it was 4.21 µM. The TGI in experiment [1] stood at 17 µM; in [2] it was 26.5 µM; in [3], 20.2 µM; in experiment [4], 6.76 µM; in [5], 15.3 µM; in experiment [6], 15.2 µM. For the same compound, the TGI in experiment [7] was 21.4 µM; in experiment [8] it was 3.66 µM; in experiment [9] it was 5.77 µM; in experiment [10], 16.4 µM.

Take `CC(=O)Oc1ccccc1C(=O)C1c2cccc(O)c2C(=O)c2c(O)cccc21`: the TGI in experiment [1] worked out at 3.41 µM; in experiment [2], 3.4 µM; in experiment [3], 3.45 µM; in experiment [4], 1.46 µM; in [5], 3.98 µM; in experiment [6], 1.94 µM. Also, the TGI stood at 2.85 µM in [7], 5.16 µM in experiment [8], 6.59 µM in [9] and 2.26 µM in [10].

Take `COC(=O)C(Cc1nc2ccc(Cl)cc2[nH]c1=O)C(=O)C(=O)Nc1ccccc1[N+](=O)[O-]` (stereo not drawn): the TGI in [1], in experiment [2], in experiment [3], in experiment [4], in experiment [5] and in [6] was more than 100 µM in each case. For the same compound, the TGI in experiment [7], in [8], in experiment [9] and in experiment [10] was more than 100 µM each time.

For `CCOC(=O)/C(C#N)=C1\N[C@H](C(=O)OCC)CO1`, the TGI in [1], in experiment [2], in [3], in [4], in experiment [5] and in experiment [6] was more than 100 µM each time. In addition, the TGI in experiment [7], in experiment [8], in [9] and in experiment [10] was more than 100 µM each time.

In the case of `Clc1ccc2nc(Oc3ccccc3)cnc2c1`, the GI50 in experiment [1], in [2], in experiment [3], in experiment [4], in [5] and in experiment [6] was more than 100 µM in each case. In addition, the GI50 in experiment [8], in experiment [9] and in [10] was more than 100 µM throughout. The TGI in experiment [1], in experiment [2], in experiment [3], in experiment [4], in experiment [5] and in experiment [6] was more than 100 µM in each case. Moreover, the TGI in experiment [8], in experiment [9] and in experiment [10] was more than 100 µM each time.

Take `O=C(O)c1c[nH]cc1C(=O)O`: the TGI in experiment [1], in experiment [2], in experiment [4], in experiment [5], in [6] and in experiment [7] was more than 100 µM in each case. The TGI in [8], in experiment [9] and in experiment [10] was more than 100 µM each time.

With `O=C(Nc1cc(Cl)c(Cl)cc1Cl)C(=O)C(C(=O)c1ccc(Cl)c(Cl)c1)C1OC(=O)c2ccccc21` (stereo not drawn), the TGI in experiment [1] amounted to 28.8 µM; in [2], 25.3 µM; in experiment [3] it was 31.7 µM; in [4], 21.9 µM; in experiment [5] it was 27.3 µM; in [6] it was 7.89 µM. In addition, the TGI is 27.7 µM in experiment [8], 39.3 µM in experiment [9] and 38.3 µM in experiment [10].

With `COc1ccc(-c2ccc(/C=N/n3c(COc4ccc(Cl)cc4)n[nH]c3=S)o2)c([N+](=O)[O-])c1`, the GI50 is 16.8 µM in experiment [1]; 22.6 µM in experiment [2]; 17.2 µM in experiment [3]; 12.7 µM in experiment [4]; 18.4 µM in experiment [5]; 18.6 µM in experiment [6]. Moreover, the GI50 is 32.7 µM in [8] and 21.1 µM in experiment [9]. Moreover, the TGI in [1] was 40.7 µM; in [2], 40.4 µM; in experiment [3], 39.6 µM; in experiment [4], 32.3 µM; in [5], 44.7 µM; in experiment [6], 42.2 µM. Besides, the TGI was more than 100 µM in [8] and 50.9 µM in experiment [9].

As to `Cc1c(C)c2ccc(OC/C=C3\CCC(=O)O3)cc2oc1=O`, the GI50 in experiment [1] is 13.3 µM; in [2], 15 µM; in experiment [4], 14.2 µM; in experiment [5], 5.35 µM; in experiment [6], 16.1 µM; in experiment [7], 14.2 µM. Moreover, the values for the GI50 in experiment [8], in experiment [9] and in experiment [10] were 11.4 µM, 16.6 µM and 18 µM, respectively. The TGI is 26.3 µM in experiment [1]; 28.8 µM in experiment [2]; 28.2 µM in experiment [4]; 20.8 µM in experiment [5]; 31.7 µM in experiment [6]; 28.9 µM in [7]. In addition, the figures for the TGI in [8], in [9] and in [10] were 24.7 µM, 35.3 µM and 40 µM, respectively.

For the compound `CC1CC2(CC[C@@H]1O)OCCO2` (stereo partly drawn), the TGI in [1], in [2], in experiment [4], in experiment [5], in [6] and in [7] was more than 100 µM throughout. The TGI in experiment [8], in [9] and in [10] was more than 100 µM in each case.

Regarding `CC(C)(Br)C(=O)/C=C/c1ccccc1`, the TGI in experiment [2] worked out at 15.6 µM; in experiment [3] it was 6.74 µM; in [4], 3.12 µM; in experiment [5], 2.22 µM; in experiment [6], 25.6 µM; in experiment [7], 1.79 µM. Also, the values for the TGI in experiment [8], in experiment [9] and in experiment [10] were 4.88 µM, 18.3 µM and 6.79 µM, respectively.

Values taken from PubChem BioAssay (NCI).
